This is an account of results in PMC7357011, “Adenosine-5′-Phosphosulfate- and Sulfite Reductases Activities of Sulfate-Reducing Bacteria from Various Environments” (Biomolecules, 2020).

The subject of assay [1] is T1, APS reductase (Desulfomicrobium sp. TC4).
T1 construct: gene aprA; native enzyme in crude cell-free extract, not purified; with Adenylylsulfate reductase subunit beta
Briefly: AMP-dependent ferricyanide reduction at […] nm, Lineweaver-Burk. Format: cell-based. As to conditions: reverse direction, EDTA, Tris-HCl pH 7.5, 27 °C, varied substrate sulfite (methods).

The test system of assay [2] is T2, sulfite reductase (Desulfovibrio sp. TC2).
T2 construct: gene dsrA; native enzyme in crude cell-free extract, not purified; NADH-oxidation read-out
Briefly: NADH oxidation at […] nm, Lineweaver-Burk. The class given is cell-based. The following applies: 0.2 mmol/L NADH, EDTA; Tris-HCl pH 7.5 (started with HCl); 27 °C.

The subject of assay [3] is T3, sulfite reductase (Desulfotomaculum sp. TC3).
T3 construct: gene dsrA; native enzyme in crude cell-free extract, not purified; NADH-oxidation read-out
Briefly: NADH oxidation at […] nm, Lineweaver-Burk. Format: biochemical. The following applies: 0.2 mmol/L NADH, EDTA; Tris-HCl pH 7.5 (started with HCl); 27 °C.

The test system of assay [4] is T4, APS reductase (Desulfotomaculum sp. TC3).
T4 construct: gene aprA; native enzyme in crude cell-free extract, not purified; with Adenylylsulfate reductase subunit beta
Briefly: AMP-dependent ferricyanide reduction at […] nm, Lineweaver-Burk. The class given is cell-based. The following applies: reverse direction, EDTA, Tris-HCl pH 7.5, 27 °C, varied substrate sulfite (methods).

In assay [5] the test system is T5, APS reductase (Desulfovibrio sp. TC2).
T5 construct: gene aprA; native enzyme in crude cell-free extract, not purified; with Adenylylsulfate reductase subunit beta
The assay is described as above. Format: cell-based. As to conditions: reverse direction, EDTA, Tris-HCl pH 7.5, 27 °C, varied substrate sulfite (methods).

Assay [6] relates to T6, sulfite reductase (Desulfovibrio sp. 10).
T6 construct: gene dsrA; native enzyme in crude cell-free extract, not purified; NADH-oxidation read-out
Briefly: NADH oxidation at […] nm, Lineweaver-Burk. The class given is biochemical. The following applies: 0.2 mmol/L NADH, EDTA; Tris-HCl pH 7.5 (started with HCl); 27 °C.

Assay [7] concerns T7, sulfite reductase (D. vulgaris DSM644).
T7 construct: gene dsrA; native enzyme in crude cell-free extract, not purified; NADH-oxidation read-out
Briefly: NADH oxidation at […] nm, Lineweaver-Burk. The class given is biochemical, Nitratidesulfovibrio vulgaris. As to conditions: 0.2 mmol/L NADH, EDTA; Tris-HCl pH 7.5 (started with HCl); 27 °C.

The subject of assay [8] is T8, sulfite reductase (D. desulfuricans DSM642).
T8 construct: gene dsrA; native enzyme in crude cell-free extract, not purified; NADH-oxidation read-out
Briefly: NADH oxidation at […] nm, Lineweaver-Burk. The class given is cell-based, Desulfovibrio desulfuricans. The following applies: 0.2 mmol/L NADH, EDTA; Tris-HCl pH 7.5 (started with HCl); 27 °C.

Assay [9] concerns the target T9, sulfite reductase (D. orale Rod-9) (Desulfomicrobium orale, UniProt A0A109W607+A0A109W618).
T9 construct: gene AXF15_07380; native enzyme in crude cell-free extract, not purified; NADH-oxidation read-out
Briefly: NADH oxidation at […] nm, Lineweaver-Burk. The following applies: 0.2 mmol/L NADH, EDTA; Tris-HCl pH 8.0 (started with HCl); 35 °C. Format: cell-based.

Assay [10] deals with T10, sulfite reductase (D. piger Vib-7).
T10 construct: gene dsrA; native enzyme in crude cell-free extract, not purified; NADH-oxidation read-out
Briefly: NADH oxidation at […] nm, Lineweaver-Burk. Format: cell-based, Desulfovibrio piger. The following applies: 0.2 mmol/L NADH, EDTA; Tris-HCl pH 8.0 (started with HCl); 35 °C.

Assay [11] deals with T11, sulfite reductase (Desulfomicrobium sp. TC4).
T11 construct: gene dsrA; native enzyme in crude cell-free extract, not purified; NADH-oxidation read-out
Briefly: NADH oxidation at […] nm, Lineweaver-Burk. As to conditions: 0.2 mmol/L NADH, EDTA; Tris-HCl pH 7.5 (started with HCl); 27 °C. The class given is cell-based.

The target of assay [12] is T12, APS reductase (D. desulfuricans DSM642) (Desulfovibrio desulfuricans, UniProt Q9L767).
T12 construct: gene aprB; native enzyme in crude cell-free extract, not purified; with Adenylylsulfate reductase subunit beta
T12 sequence (Q9L767 1-662): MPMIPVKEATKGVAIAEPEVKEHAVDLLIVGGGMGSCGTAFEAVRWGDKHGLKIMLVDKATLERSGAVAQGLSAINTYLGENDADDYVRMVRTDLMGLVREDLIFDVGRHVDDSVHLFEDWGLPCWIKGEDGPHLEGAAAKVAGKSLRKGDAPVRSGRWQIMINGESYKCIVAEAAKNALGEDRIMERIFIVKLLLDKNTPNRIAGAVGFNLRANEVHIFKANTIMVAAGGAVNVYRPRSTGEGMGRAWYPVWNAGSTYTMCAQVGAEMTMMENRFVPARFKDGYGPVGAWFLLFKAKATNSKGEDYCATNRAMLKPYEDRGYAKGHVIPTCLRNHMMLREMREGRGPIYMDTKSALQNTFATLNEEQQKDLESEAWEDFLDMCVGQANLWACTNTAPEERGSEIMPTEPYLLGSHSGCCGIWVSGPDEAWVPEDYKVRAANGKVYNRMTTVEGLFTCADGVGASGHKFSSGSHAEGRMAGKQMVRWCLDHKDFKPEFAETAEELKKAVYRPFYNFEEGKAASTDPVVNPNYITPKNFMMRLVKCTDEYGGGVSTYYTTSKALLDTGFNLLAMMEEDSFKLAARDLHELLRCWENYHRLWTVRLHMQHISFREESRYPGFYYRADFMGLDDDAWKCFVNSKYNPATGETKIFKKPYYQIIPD
T12 sequence (Q9L768 1-162 partner): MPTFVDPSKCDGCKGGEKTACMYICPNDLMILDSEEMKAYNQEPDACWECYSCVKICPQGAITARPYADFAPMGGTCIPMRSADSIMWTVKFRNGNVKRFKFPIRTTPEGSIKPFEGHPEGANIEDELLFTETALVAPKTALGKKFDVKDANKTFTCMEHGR
Briefly: AMP-dependent ferricyanide reduction at […] nm, Lineweaver-Burk. The class given is cell-based. As to conditions: reverse direction, EDTA, Tris-HCl pH 7.5, 27 °C, varied substrate sulfite (methods).

T9 sequence (A0A109W618 1-437): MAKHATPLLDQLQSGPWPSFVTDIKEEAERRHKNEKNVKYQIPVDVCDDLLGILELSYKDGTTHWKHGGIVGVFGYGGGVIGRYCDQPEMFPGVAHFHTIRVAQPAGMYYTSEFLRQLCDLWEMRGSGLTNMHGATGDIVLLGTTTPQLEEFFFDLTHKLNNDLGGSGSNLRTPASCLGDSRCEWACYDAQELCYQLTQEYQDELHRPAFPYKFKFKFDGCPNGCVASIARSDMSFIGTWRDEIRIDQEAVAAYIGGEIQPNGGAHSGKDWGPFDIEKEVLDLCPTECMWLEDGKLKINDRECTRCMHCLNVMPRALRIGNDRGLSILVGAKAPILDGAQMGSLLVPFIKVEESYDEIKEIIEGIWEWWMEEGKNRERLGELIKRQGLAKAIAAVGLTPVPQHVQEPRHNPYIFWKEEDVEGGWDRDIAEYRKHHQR
T9 sequence (A0A109W607 1-386): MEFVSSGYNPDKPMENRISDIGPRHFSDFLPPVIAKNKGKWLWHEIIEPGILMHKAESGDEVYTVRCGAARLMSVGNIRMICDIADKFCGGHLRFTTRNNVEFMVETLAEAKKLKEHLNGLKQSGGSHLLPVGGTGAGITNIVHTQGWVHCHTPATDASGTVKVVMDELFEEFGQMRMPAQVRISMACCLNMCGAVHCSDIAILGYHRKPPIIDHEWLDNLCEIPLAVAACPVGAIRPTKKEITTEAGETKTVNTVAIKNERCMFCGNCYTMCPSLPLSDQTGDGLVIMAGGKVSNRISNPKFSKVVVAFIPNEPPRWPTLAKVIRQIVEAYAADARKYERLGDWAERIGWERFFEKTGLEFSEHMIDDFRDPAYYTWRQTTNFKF

As for sulfite, the Km in [1] worked out at 1.1 mM; in [2], 26.1 mM; in assay [3] it was 46.2 mM; in assay [4] it was 1.49 mM; in assay [5], 1.59 mM; in [6], 46.7 mM. Moreover, the Km in assay [7] stood at 31.7 mM; in assay [8], 9.97 mM; in assay [9], 3.86 mM; in [10], 3.53 mM; in assay [11], 19.4 mM; in [12] it was 2.12 mM.

In general, Km refers to the substrate concentration at which the rate is half of its maximum.
